Key:
Carbonic anhydrase 1 = Carbonic anhydrase 1 (Homo sapiens, UniProt P00915)
Description: Inhibitory activity against Human carbonic anhydrase I

Carbonic anhydrase 4 = biological target: T1, Carbonic anhydrase 4 (Bos taurus, UniProt Q95323)
T1 sequence (Q95323 whole entry): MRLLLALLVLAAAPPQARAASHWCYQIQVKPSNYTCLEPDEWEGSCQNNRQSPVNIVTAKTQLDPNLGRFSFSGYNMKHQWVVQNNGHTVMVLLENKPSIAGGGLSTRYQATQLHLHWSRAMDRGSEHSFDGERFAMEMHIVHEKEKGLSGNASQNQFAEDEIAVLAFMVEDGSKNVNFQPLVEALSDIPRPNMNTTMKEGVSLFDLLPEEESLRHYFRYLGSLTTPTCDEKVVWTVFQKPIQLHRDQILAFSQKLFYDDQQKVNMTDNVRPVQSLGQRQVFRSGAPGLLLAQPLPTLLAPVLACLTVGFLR
Description: Inhibitory activity against bovine carbonic anhydrase IV

Sequence of Carbonic anhydrase 1 (P00915 whole entry): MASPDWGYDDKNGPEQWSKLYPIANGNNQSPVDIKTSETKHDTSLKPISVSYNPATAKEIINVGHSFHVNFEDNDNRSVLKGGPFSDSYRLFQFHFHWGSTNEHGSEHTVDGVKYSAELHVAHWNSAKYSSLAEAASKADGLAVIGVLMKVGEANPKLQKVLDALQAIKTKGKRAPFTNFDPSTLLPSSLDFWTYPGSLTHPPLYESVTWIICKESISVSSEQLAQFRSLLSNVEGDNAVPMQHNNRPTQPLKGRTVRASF

| SMILES | Ki (Carbonic anhydrase 1) | Ki (Carbonic anhydrase 4) |
| --- | --- | --- |
| NS(=O)(=O)c1nc2ccc(NC(=O)CN(CCN(CC(=O)O)c3ccccc3O)c3ccccc3O)cc2s1 | 52 nM | 13 nM |
| NS(=O)(=O)c1ccc(CNC(=O)CN(CCN(CC(=O)O)CC(=O)O)CC(=O)O)cc1 | 900 nM | 83 nM |
| NS(=O)(=O)c1cc(S(N)(=O)=O)c(NC(=O)CNCC(=O)O)cc1Cl | 400 nM | 145 nM |
| NS(=O)(=O)c1ccc(NC(=O)CN(CCOCCOCCN(CC(=O)O)CC(=O)Nc2ccc(S(N)(=O)=O)cc2Br)CC(=O)O)c(Br)c1 | 85 nM | 25 nM |
| NS(=O)(=O)c1cccc(NC(=O)CNCCNCC(=O)O)c1 | 13000 nM | 1010 nM |
| NS(=O)(=O)c1cccc(NC(=O)CN(CC(=O)O)CC(=O)O)c1 | 23000 nM | 1520 nM |
| NS(=O)(=O)c1nc2ccc(NC(=O)CN(CCN(CC(=O)O)CC(=O)O)CC(=O)O)cc2s1 | 48 nM | 11 nM |
| NS(=O)(=O)c1ccccc1NC(=O)CN(CCN(CC(=O)O)CC(=O)O)CC(=O)O | 9200 nM | 800 nM |
| NS(=O)(=O)c1ccc(CCOC(=O)CN(CCN(CC(=O)O)CC(=O)O)CC(=O)O)cc1 | 640 nM | 310 nM |
| NS(=O)(=O)c1nc2ccc(NC(=O)CN(CC(=O)O)CC(=O)O)cc2s1 | 62 nM | 13 nM |
| NS(=O)(=O)c1ccc(CCOC(=O)CN(CCN(CC(=O)O)CC(=O)OCCc2ccc(S(N)(=O)=O)cc2)CC(=O)O)cc1 | 450 nM | 165 nM |
| NS(=O)(=O)c1ccc(NC(=O)CN(CCOCCOCCN(CC(=O)O)CC(=O)O)CC(=O)O)c(F)c1 | 210 nM | 31 nM |
| NS(=O)(=O)c1ccc(NNC(=O)CN(CCN(CC(=O)O)CC(=O)NNc2ccc(S(N)(=O)=O)cc2)CC(=O)O)cc1 | 12500 nM | 510 nM |
| NS(=O)(=O)c1ccc(CCNC(=O)CN(CCN(CC(=O)O)c2ccccc2O)c2ccccc2O)cc1 | 1050 nM | 215 nM |
| NS(=O)(=O)c1ccc(NC(=O)CN(CCN(CC(=O)O)CC(=O)O)CC(=O)O)c(I)c1 | 123 nM | 78 nM |
| Cn1nc(S(N)(=O)=O)s/c1=N/C(=O)CN(CCN(CC(=O)O)c1ccccc1O)c1ccccc1O | 250 nM | 57 nM |
| Cn1nc(S(N)(=O)=O)s/c1=N/C(=O)CNCC(=O)O | 710 nM | 120 nM |
| NS(=O)(=O)c1ccc(CNC(=O)CN(CC(=O)O)CC(=O)O)cc1 | 3500 nM | 256 nM |
| Cn1nc(S(N)(=O)=O)s/c1=N/C(=O)CN(CCOCCOCCN(CC(=O)O)CC(=O)O)CC(=O)O | 66 nM | 16 nM |
| NS(=O)(=O)c1cccc(NC(=O)CN(CCN(CC(=O)O)c2ccccc2O)c2ccccc2O)c1 | 10000 nM | 860 nM |
| NS(=O)(=O)c1ccc(COC(=O)CN(CC(=O)O)CC(=O)O)cc1 | 1200 nM | 350 nM |
| NS(=O)(=O)c1ccc(NC(=O)CN(CCN(CC(=O)O)CC(=O)Nc2ccc(S(N)(=O)=O)cc2I)CC(=O)O)c(I)c1 | 89 nM | 45 nM |
| NS(=O)(=O)c1cc(S(N)(=O)=O)c(NC(=O)CN(CCN(CC(=O)O)CC(=O)O)CC(=O)O)cc1Cl | 210 nM | 105 nM |
| NS(=O)(=O)c1cc(S(N)(=O)=O)c(NC(=O)CN(CC(=O)O)CC(=O)O)cc1Cl | 300 nM | 148 nM |

| SMILES | Ki (Carbonic anhydrase 1) | Ki (Carbonic anhydrase 4) |
| --- | --- | --- |
| NS(=O)(=O)c1nnc(NC(=O)CNCC(=O)O)s1 | 415 nM | 265 nM |
| NS(=O)(=O)c1cc(S(N)(=O)=O)c(NC(=O)CNCC(=O)O)c(Cl)c1Cl | 405 nM | 107 nM |
| NS(=O)(=O)c1ccc(NC(=O)CN(CCOCCOCCN(CC(=O)O)CC(=O)Nc2ccc(S(N)(=O)=O)cc2Cl)CC(=O)O)c(Cl)c1 | 150 nM | 22 nM |
| NS(=O)(=O)c1ccc(NC(=O)CNCC(=O)O)cc1 | 21300 nM | 450 nM |
| NS(=O)(=O)c1cccc(NC(=O)CN(CCOCCOCCN(CC(=O)O)CC(=O)Nc2cccc(S(N)(=O)=O)c2)CC(=O)O)c1 | 6150 nM | 400 nM |
| NS(=O)(=O)c1ccc(NC(=O)CN(CCOCCOCCN(CC(=O)O)CC(=O)Nc2ccc(S(N)(=O)=O)cc2I)CC(=O)O)c(I)c1 | 76 nM | 20 nM |
| NS(=O)(=O)c1ccc(CCOC(=O)CN(CCN(CC(=O)O)c2ccccc2O)c2ccccc2O)cc1 | 760 nM | 300 nM |
| NS(=O)(=O)c1ccc(CCNC(=O)CN(CCN(CC(=O)O)CC(=O)O)CC(=O)O)cc1 | 650 nM | 75 nM |
| NS(=O)(=O)c1ccc(NC(=O)CN(CC(=O)O)CC(=O)O)c(Cl)c1 | 960 nM | 150 nM |
| NS(=O)(=O)c1ccc(NC(=O)CN(CC(=O)O)CC(=O)O)c(F)c1 | 1000 nM | 136 nM |
| NS(=O)(=O)c1ccc(NC(=O)CN(CCN(CC(=O)O)c2ccccc2O)c2ccccc2O)c(F)c1 | 450 nM | 79 nM |
| NS(=O)(=O)c1ccccc1NC(=O)CN(CCN(CC(=O)O)CC(=O)Nc1ccccc1S(N)(=O)=O)CC(=O)O | 8100 nM | 650 nM |
| NS(=O)(=O)c1ccc(CNC(=O)CN(CCN(CC(=O)O)c2ccccc2O)c2ccccc2O)cc1 | 1200 nM | 135 nM |
| NS(=O)(=O)c1cc(S(N)(=O)=O)c(NC(=O)CN(CCN(CC(=O)O)c2ccccc2O)c2ccccc2O)c(Cl)c1Cl | 250 nM | 105 nM |
| Cn1nc(S(N)(=O)=O)s/c1=N/C(=O)CN(CCOCCOCCN(CC(=O)O)CC(=O)/N=c1/sc(S(N)(=O)=O)nn1C)CC(=O)O [listing 1 of 2 here] | 36 nM | 5 nM |
| Cn1nc(S(N)(=O)=O)s/c1=N/C(=O)CN(CCN(CCN(CC(=O)O)CC(=O)/N=c1/sc(S(N)(=O)=O)nn1C)CC(=O)O)CC(=O)O | 43 nM | 5 nM |
| NS(=O)(=O)c1nc2ccc(OCCOC(=O)CN(CCOCCOCCN(CC(=O)O)CC(=O)O)CC(=O)O)cc2s1 | 30 nM | 6 nM |
| NS(=O)(=O)c1nc2ccc(OCCOC(=O)CN(CCOCCOCCN(CC(=O)O)CC(=O)OCCOc3ccc4nc(S(N)(=O)=O)sc4c3)CC(=O)O)cc2s1 | 15 nM | 5 nM |
| NS(=O)(=O)c1ccc(COC(=O)CNCCNCC(=O)O)cc1 | 1020 nM | 350 nM |
| NS(=O)(=O)c1ccc(NC(=O)CNCC(=O)O)c(I)c1 | 515 nM | 114 nM |
| NS(=O)(=O)c1ccc(CCNC(=O)CNCC(=O)O)cc1 | 3450 nM | 257 nM |
| NS(=O)(=O)c1cccc(NC(=O)CN(CCOCCOCCN(CC(=O)O)CC(=O)O)CC(=O)O)c1 | 7450 nM | 500 nM |
| NS(=O)(=O)c1ccc(NC(=O)CNCC(=O)O)c(Cl)c1 | 975 nM | 165 nM |
| Cn1nc(S(N)(=O)=O)s/c1=N/C(=O)CN(CCOCCOCCN(CC(=O)O)CC(=O)/N=c1/sc(S(N)(=O)=O)nn1C)CC(=O)O [listing 2 of 2 here] | 32 nM | 7 nM |

| SMILES | Ki (Carbonic anhydrase 1) | Ki (Carbonic anhydrase 4) |
| --- | --- | --- |
| NS(=O)(=O)c1ccc(NC(=O)CN(CCN(CC(=O)O)CC(=O)O)CC(=O)O)cc1 | 6300 nM | 330 nM |
| NS(=O)(=O)c1ccccc1NC(=O)CN(CCN(CC(=O)O)c1ccccc1O)c1ccccc1O | 12500 nM | 800 nM |
| NS(=O)(=O)c1nnc(NC(=O)CCNC(=O)CNCCNCC(=O)O)s1 | 240 nM | 39 nM |
| NS(=O)(=O)c1ccc(NC(=O)CN(CC(=O)O)CC(=O)O)c(Br)c1 | 620 nM | 53 nM |
| NS(=O)(=O)c1ccc(NC(=O)CN(CCN(CC(=O)O)CC(=O)O)CC(=O)O)c(F)c1 | 360 nM | 40 nM |
| NS(=O)(=O)c1nnc(NC(=O)CN(CC(=O)O)CC(=O)O)s1 | 410 nM | 240 nM |
| NS(=O)(=O)c1ccc(COC(=O)CN(CCN(CC(=O)O)CC(=O)OCc2ccc(S(N)(=O)=O)cc2)CC(=O)O)cc1 | 460 nM | 200 nM |
| NS(=O)(=O)c1ccc(NC(=O)CNCC(=O)O)c(F)c1 | 1300 nM | 145 nM |
| NS(=O)(=O)c1nnc(NC(=O)CCNC(=O)CN(CCOCCOCCN(CC(=O)O)CC(=O)O)CC(=O)O)s1 | 120 nM | 13 nM |
| NS(=O)(=O)c1ccccc1NC(=O)CN(CCOCCOCCN(CC(=O)O)CC(=O)O)CC(=O)O | 8900 nM | 545 nM |
| NS(=O)(=O)c1ccc(NC(=O)CNCCNCC(=O)O)c(Br)c1 | 380 nM | 54 nM |
| NS(=O)(=O)c1ccc(NC(=O)CN(CCN(CC(=O)O)CC(=O)Nc2ccc(S(N)(=O)=O)cc2Cl)CC(=O)O)c(Cl)c1 | 225 nM | 50 nM |
| NS(=O)(=O)c1ccc(CCNC(=O)CN(CCOCCOCCN(CC(=O)O)CC(=O)O)CC(=O)O)cc1 | 290 nM | 32 nM |
| NS(=O)(=O)c1ccc(NC(=O)CN(CC(=O)O)CC(=O)O)cc1 | 20600 nM | 450 nM |
| NS(=O)(=O)c1ccc(NC(=O)CNCCNCC(=O)O)c(Cl)c1 | 900 nM | 155 nM |
| NS(=O)(=O)c1ccc(CCOC(=O)CN(CCOCCOCCN(CC(=O)O)CC(=O)OCCc2ccc(S(N)(=O)=O)cc2)CC(=O)O)cc1 | 300 nM | 96 nM |
| NS(=O)(=O)c1ccc(CNC(=O)CN(CCOCCOCCN(CC(=O)O)CC(=O)O)CC(=O)O)cc1 | 610 nM | 48 nM |
| NS(=O)(=O)c1ccc(NC(=O)CN(CCN(CC(=O)O)c2ccccc2O)c2ccccc2O)c(I)c1 | 220 nM | 90 nM |
| NS(=O)(=O)c1ccccc1NC(=O)CNCC(=O)O | 27000 nM | 1240 nM |
| NS(=O)(=O)c1cc(S(N)(=O)=O)c(NC(=O)CN(CCN(CC(=O)O)CC(=O)Nc2cc(Cl)c(S(N)(=O)=O)cc2S(N)(=O)=O)CC(=O)O)cc1Cl | 72 nM | 69 nM |
| NS(=O)(=O)c1nc2ccc(OCCOC(=O)CN(CCN(CC(=O)O)c3ccccc3O)c3ccccc3O)cc2s1 | 41 nM | 7 nM |
| NS(=O)(=O)c1ccc(NNC(=O)CNCCNCC(=O)O)cc1 | 21800 nM | 950 nM |
